From patent US11338021B2, “Combination therapies” (ENZYMATICA AB, priority 2015, dated 2022)
“Also recorded” adds a separate entry of the source.

Assays:
Format in all cases: cell-based
[1] = tested on: biofilms using a combination of Streptococcus pneumonia and Streptococcus mitis; test: Dispersal of pre-grown model (super) biofilm in microtiter plate, crystal violet staining, absorbance at 492 nm; settings: for biofilm disruption by antibiotic and cod trypsin combination compared with antibiotic alone: FIG. 1, Student's t test; for effect of antibiotic alone on biofilm formation: biofilms grown for 4 hours; for disruption of super biofilm by cod trypsins alone: FIGS. 4-6, compared with placebo, treated for 2 minutes
Method: Effects of combination of cod trypsins with selected antibiotics on biofilm dispersal. […] Biofilms using a combination of Streptococcus pneumonia and Streptococcus mitis were grown in a microtiter plate and used as a model for biofilm. The biofilm was treated with an antibiotic or a combination of the antibiotics and cod trypsins. The biofilms were stained with crystal violet followed by dissolution with acetic acid. Biofilm formation was measured as absorbance at 492 nm, and normalized to untreated biofilm. […] P values above bars indicate significance of difference between the two treatments as evaluated by Student's t test.
Effects of combination of cod trypsins with selected antibiotics on biofilm dispersal. […] Biofilms using a combination of Streptococcus pneumonia and Streptococcus mitis were grown in a microtiter plate and used as a model biofilm. The biofilm was treated with cod trypsins, an antibiotic, or a combination of the two. The biofilms were stained with crystal violet followed by dissolution with acetic acid. Biofilm formation was measured as absorbance at 492 nm, and normalized to untreated biofilm. […] P values above bars indicate significance of effects as evaluated by ANOVA analysis.
Each column represents one type of treatment or treatment combination, with the rows representing decreasing concentrations from top to bottom. After treatment biofilms are stained with crystal violet, with a darker colour representing more remaining biofilm. […] The lowest row represents blanks, where the first six holes represent untreated biofilm and the next six represent no biofilm.
Effects of cod trypsins on the super biofilm presented visually after biofilm staining with crystal violet. […] The super biofilm with a combination of Streptococcus pneumonia and Streptococcus mitis were grown in a microtiter plate. The biofilm was treated with cod trypsins or placebo for 2 minutes and the wells were stained to measure the presence (black wells) of biofilm or its absence (clear wells) after treatment.
After treatment the biofilms were stained with crystal violet, with a darker colour representing more remaining biofilm.
Effects of cod trypsins on the super biofilm as measured by spectrophotometry after crystal violet staining and dissolution in acetic acid. […] Biofilms using a combination of Streptococcus pneumonia and Streptococcus mitis were grown in a microtiter plate. The biofilm was treated with cod trypsins or placebo and the wells were stained with crystal violet followed by dissolution with acetic acid. Biofilm formation was measured as absorbance at 492 nm, and normalized to untreated biofilm. […] Data is presented as a bar-plot with the error bars indicating the standard error of the mean (SEM). Data for dilutions of placebo and cod trypsins treated bacterial biofilms are placed next to each other. The Log reduction of biofilm formation of Penzyme compared to that of placebo in the same dilution is above the bars, as is the level of significance indicated by asterisks (*), where * represents a P of <0.05, ** a P<0.01 and *** a P<0.001. Students T-test was used to calculate the significance.
Log reduction of super biofilm by cod trypsins at different concentrations. […] Biofilms using a combination of Streptococcus pneumonia and Streptococcus mitis were grown in a microtiter plate. The biofilm was treated with cod trypsins or placebo and the wells were stained with crystal violet followed by dissolution with acetic acid. Biofilm formation was measured as absorbance at 492 nm, and the reduction compared to placebo treated biofilm on a logarithmic scale.
Biofilms using a combination of Streptococcus pneumonia and Streptococcus mitis were grown in a microtiter plate. The biofilm was treated with an antibiotic or a combination of the antibiotics and cod trypsins. The biofilms were stained with crystal violet followed by dissolution with acetic acid.

bacteria = test: Lethality of cod trypsin to bacteria (statement, no method given)
[2] = tested on: biofilm forming bacteria Streptococcus pneumonia and Streptococcus mitis; test: Pre-treatment of planktonic bacteria before biofilm formation (4 hours), crystal violet staining, absorbance at 492 nm; settings: FIGS. 7-8, compared with placebo, biofilms grown 4 hours, normalized to untreated biofilm
Method: Effects of cod trypsins pre-treatment on biofilm formation. […] Biofilms using a combination of Streptococcus pneumonia and Streptococcus mitis were grown in a microtiter plate after being briefly treated with cod trypsins or placebo. After allowing the biofilms to grow for 4 hours the wells were stained with crystal violet followed by dissolution with acetic acid. Biofilm formation was measured as absorbance at 492 nm, and normalized to untreated biofilm. […] Data is presented as a boxplot where the top of the rectangle indicates the third quartile, a horizontal line near the middle of the rectangle indicates the median, and the bottom of the rectangle indicates the first quartile. A vertical line extends from the top of the rectangle to indicate the maximum value, and another vertical line extends from the bottom of the rectangle to indicate the minimum value.
Effects of cod trypsin pre-treatment on biofilm formation. […] Biofilms using a combination of Streptococcus pneumonia and Streptococcus mitis were grown in a microtiter plate after being treated with cod trypsins or placebo. After allowing the biofilms to grow for 4 hours the wells were stained with crystal violet followed by dissolution with acetic acid. Biofilm formation was measured as absorbance at 492 nm, and normalized to untreated biofilm. […] Statistical significance of the difference, as evaluated by Student's t test, is indicated by symbols above the boxes where n.s. is p >0.05, * is p<0.05, ** p<0.01, and *** p<0.001.
After allowing the biofilms to grow for 4 hours the wells were stained with crystal violet followed by dissolution with acetic acid. Biofilm formation was measured as absorbance at 492 nm, and normalized to untreated biofilm. […] Cod trypsins prevent biofilm formation in a concentration dependent manner. […] Biofilm formation was measured as absorbance at 492 nm, and normalized to untreated biofilm. […] Statistical significance of the difference, as evaluated by Student's t test, is indicated by symbols above the boxes where n.s. is p >0.05, * is p<0.05, ** p<0.01, and *** p<0.001.

[3] = absorbance at 492 nm normalized to untreated biofilm
[4] = FIG. 3, 96 well plate image, crystal violet

With `CO/N=C(\C(=O)N[C@@H]1C(=O)N2C(C(=O)O)=C(COC(C)=O)CS[C@H]12)c1csc(N)n1` [cefotaxime] the “biofilm disruption by antibiotic and cod trypsin combination compared with antibiotic alone” value [1, 3] was “more effective in disrupting bacterial biofilm than antibiotics alone” and the “biofilm disruption by combination of cod trypsin and antibiotic compared with either alone” value ([1]; FIG. 2, absorbance at 492 nm normalized to untreated biofilm, ANOVA) was “more effective in disrupting bacterial biofilm than either cod trypsins or antibiotics alone”.

With `CC[C@H]1OC(=O)[C@H](C)[C@@H](O[C@H]2C[C@@](C)(OC)[C@@H](O)[C@H](C)O2)[C@H](C)[C@@H](O[C@@H]2O[C@H](C)C[C@H](N(C)C)[C@H]2O)[C@](C)(O)C[C@@H](C)C(=O)[C@H](C)[C@@H](O)[C@]1(C)O` [erythromycin] the “biofilm disruption by antibiotic and cod trypsin combination compared with antibiotic alone” value [1, 3] was “more effective in disrupting bacterial biofilm than antibiotics alone”.

`Cc1onc(-c2ccccc2)c1C(=O)N[C@@H]1C(=O)N2[C@@H]1SC(C)(C)[C@@H]2C(=O)O` [oxacillin] was tested, and the “biofilm disruption by antibiotic and cod trypsin combination compared with antibiotic alone” value [1, 3] was “more effective in disrupting bacterial biofilm than antibiotics alone”.

For `CN[C@H](CC(C)C)C(=O)N[C@H]1C(=O)N[C@@H](CC(N)=O)C(=O)N[C@H]2C(=O)N[C@H]3C(=O)N[C@H](C(=O)N[C@H](C(=O)O)c4cc(O)cc(O)c4-c4cc3ccc4O)[C@H](O)c3ccc(c(Cl)c3)Oc3cc2cc(c3O[C@@H]2O[C@H](CO)[C@@H](O)[C@H](O)[C@H]2O[C@H]2C[C@](C)(N)[C@H](O)[C@H](C)O2)Oc2ccc(cc2Cl)[C@H]1O` [vancomycin], the “biofilm disruption by antibiotic and cod trypsin combination compared with antibiotic alone” value [1, 3] was “not to have significantly increased efficacy against the model biofilm when combined with trypsin”, the “effect of antibiotic in combination with cod trypsin on efficacy of cod trypsin” value [1, 4] was “can increase the efficacy of cod trypsin” and the “effect of antibiotic alone on biofilm formation” value [1, 4] was “the drug alone appears to increase biofilm formation”. For the same molecule, the “effect of antibiotic alone on biofilm formation” value ([1]; FIG. 3, 96 well plate image, crystal violet, listed as Vancomycin) was “may increase biofilm formation”.

B1: cod trypsin: trypsin from Atlantic cod (Gadus morhua), a polypeptide having serine protease activity (protein, listed as Gadus morhua)
chain: IVGGYECTKHSQAHQVSLNSGYHFCGGSLVSKDWVVSAAHCYKSVLRVRLGEHHIRVNEGTEQYISSSSVIRHPNYSSYNINNDIMLIKLTKPATLNQYVHAVALPTECAADATMCTVSGWGNTMSSVADGDKLQCLSLPILSHADCANSYPGMITQSMFCAGYLEGGKDSCQGDSGGPVVCNGVLQGVVSWGYGCAERDHPGVYAKVCVLSGWVRDTMANY
For B1, the “time in which cod trypsins disrupt bacterial biofilm” value ([1]; FIG. 6, at concentrations 8 U/g or higher) was “less than 2 minutes”, the “concentrations at which cod trypsins are very effective in disrupting bacterial biofilm” value ([1]; FIG. 6, log reduction compared to placebo treated biofilm) was at least 8 U/g and the “disruption of super biofilm by cod trypsins alone” value [1] was “effective at removing biofilms at the higher concentration”. The “disruption of super biofilm by cod trypsins alone” value ([1]; listed as cod trypsins) was “very effective in disrupting the super biofilm; also recorded: very effective in disrupting bacterial biofilm; also recorded: disrupt the super biofilm in a concentration dependent manner; also recorded: quite capable of both removing bacteria from and partially prevent reattachment of bacteria to surfaces in a concentration dependent manner”, the “lethality to the bacteria” value (bacteria) was “not lethal to the bacteria” and the “prevention of biofilm formation by pre-treatment of bacteria” value (from here on “prevention of biofilm formation”) [2] was “can prevent the formation of biofilms in a concentration dependent manner”. For the same molecule, the “prevention of biofilm formation” value ([2]; listed as cod trypsin composition) was “very effective in preventing bacterial biofilm formation” and the “prevention of biofilm formation” value ([2]; listed as cod trypsins) was “very effective in preventing bacterial biofilm formation”.
